{"source": "patent US11207317B2", "about": "“Methylnaltrexone nasal formulations, methods of making, and use thereof” (AptaPharma Inc., priority 2012, dated 2021)", "origin": "cited, not measured here", "test_system": "opioid-induced reduction in bowel motility", "conditions": "healthy volunteers; intravenous or oral administration", "data": [{"compound": "C[N@+]1(CC2CC2)CC[C@]23c4c5ccc(O)c4O[C@H]2C(=O)CC[C@@]3(O)[C@H]1C5", "note": "[methylnaltrexone, Methylnaltrexone]", "values": [{"measurement": "effect on opioid-induced reduction in bowel motility", "value": "reverse opioid-induced reduction in bowel motility"}]}]}
